How the values were obtained:
Format in all cases: functional
SNB-19 = experiment: Cytotoxicity against human SNB19 cells assessed as cell growth at 100 uM after 48 hrs by SRB assay relative to control; conditions: SNB-19, 48 h, read-out: Activity
PC-3 [1] = experiment: Cytotoxicity against human PC3 cells assessed as cell growth at 100 uM after 48 hrs by SRB assay relative to control; conditions: PC-3, 48 h, read-out: Activity
U-251 [2] = experiment: Cytotoxicity against human U251 cells assessed as cell growth at 100 uM after 48 hrs by SRB assay relative to control; conditions: U-251, 48 h, read-out: Activity
OVCAR-5 = experiment: Cytotoxicity against human OVCAR5 cells after 48 hrs by SRB assay; conditions: OVCAR-5, 48 h
NCI-H322M [3] = experiment: Cytotoxicity against human NCI-H322M cells assessed as cell growth at 1 uM after 48 hrs by SRB assay relative to control; conditions: read-out: Activity
HOP-92 = experiment: Cytotoxicity against human HOP92 cells assessed as cell growth at 0.1 uM after 48 hrs by SRB assay relative to control; conditions: HOP-92, 48 h, read-out: Activity
TK-10 = experiment: Cytotoxicity against human TK10 cells assessed as cell growth at 1 uM after 48 hrs by SRB assay relative to control; conditions: TK-10, 48 h, read-out: Activity
UACC-62 = experiment: Cytotoxicity against human UACC62 cells assessed as cell growth at 100 uM after 48 hrs by SRB assay relative to control; conditions: UACC-62, 48 h, read-out: Activity
DU-145 = experiment: Cytotoxicity against human DU145 cells assessed as cell growth at 0.1 uM after 48 hrs by SRB assay relative to control; conditions: DU-145, 48 h, read-out: Activity
MCF7 = experiment: Cytotoxicity against human MCF7 cells assessed as cell growth at 100 uM after 48 hrs by SRB assay relative to control; conditions: MCF7, 48 h, read-out: Activity
U-251 [4] = experiment: Cytotoxicity against human U251 cells after 48 hrs by SRB assay; conditions: U-251, 48 h
NCI-H322M [5] = experiment: Cytotoxicity against human NCI-H322M cells after 48 hrs by SRB assay
U-251 [6] = experiment: Cytotoxicity against human U251 cells assessed as cell growth at 0.01 uM after 48 hrs by SRB assay relative to control; conditions: U-251, 48 h, read-out: Activity
U-251 [7] = experiment: Cytotoxicity against human U251 cells assessed as cell growth at 0.1 uM after 48 hrs by SRB assay relative to control; conditions: U-251, 48 h, read-out: Activity
A549 = experiment: Cytotoxicity against human A549 cells assessed as cell growth at 1 uM after 48 hrs by SRB assay relative to control; conditions: A549, 48 h, read-out: Activity
U-251 [8] = experiment: Cytotoxicity against human U251 cells assessed as cell growth at 1 uM after 48 hrs by SRB assay relative to control; conditions: U-251, 48 h, read-out: Activity
NCI-H322M [9] = experiment: Cytotoxicity against human NCI-H322M cells assessed as cell growth at 100 uM after 48 hrs by SRB assay relative to control; conditions: read-out: Activity
Malme-3M [10] = experiment: Cytotoxicity against human MALME-3M cells assessed as cell growth at 0.01 uM after 48 hrs by SRB assay relative to control; conditions: read-out: Activity
NCI-H460 = experiment: Cytotoxicity against human NCI-H460 cells assessed as cell growth at 0.01 uM after 48 hrs by SRB assay relative to control; conditions: NCI-H460, 48 h, read-out: Activity
Malme-3M [11] = experiment: Cytotoxicity against human MALME-3M cells assessed as cell growth at 100 uM after 48 hrs by SRB assay relative to control; conditions: read-out: Activity
PC-3 [12] = experiment: Cytotoxicity against human PC3 cells assessed as cell growth at 0.01 uM after 48 hrs by SRB assay relative to control; conditions: PC-3, 48 h, read-out: Activity
NCI-H322M [13] = experiment: Cytotoxicity against human NCI-H322M cells assessed as cell growth at 0.1 uM after 48 hrs by SRB assay relative to control; conditions: read-out: Activity
RXF 393 = experiment: Cytotoxicity against human RXF393 cells assessed as cell growth at 100 uM after 48 hrs by SRB assay relative to control; conditions: RXF 393, 48 h, read-out: Activity
CAKI-1 = experiment: Cytotoxicity against human Caki1 cells after 48 hrs by SRB assay; conditions: CAKI-1, 48 h
SK-MEL-2 = experiment: Cytotoxicity against human SK-MEL-2 cells assessed as cell growth at 100 uM after 48 hrs by SRB assay relative to control; conditions: SK-MEL-2, 48 h, read-out: Activity
NCI-H322M [14] = experiment: Cytotoxicity against human NCI-H322M cells assessed as cell growth at 0.01 uM after 48 hrs by SRB assay relative to control; conditions: read-out: Activity
OVCAR-4 [15] = experiment: Cytotoxicity against human OVCAR4 cells assessed as cell growth at 100 uM after 48 hrs by SRB assay relative to control; conditions: OVCAR-4, 48 h, read-out: Activity
EKVX [16] = experiment: Cytotoxicity against human EKVX cells assessed as cell growth at 0.1 uM after 48 hrs by SRB assay relative to control; conditions: read-out: Activity
EKVX [17] = experiment: Cytotoxicity against human EKVX cells assessed as cell growth at 1 uM after 48 hrs by SRB assay relative to control; conditions: read-out: Activity
EKVX [18] = experiment: Cytotoxicity against human EKVX cells assessed as cell growth at 0.01 uM after 48 hrs by SRB assay relative to control; conditions: read-out: Activity
OVCAR-4 [19] = experiment: Cytotoxicity against human OVCAR4 cells assessed as cell growth at 0.1 uM after 48 hrs by SRB assay relative to control; conditions: OVCAR-4, 48 h, read-out: Activity
OVCAR-4 [20] = experiment: Cytotoxicity against human OVCAR4 cells after 48 hrs by SRB assay; conditions: OVCAR-4, 48 h
EKVX [21] = experiment: Cytotoxicity against human EKVX cells after 48 hrs by SRB assay
SK-OV-3 = experiment: Cytotoxicity against human SKOV3 cells assessed as cell growth at 100 uM after 48 hrs by SRB assay relative to control; conditions: SK-OV-3, 48 h, read-out: Activity
OVCAR-4 [22] = experiment: Cytotoxicity against human OVCAR4 cells assessed as cell growth at 1 uM after 48 hrs by SRB assay relative to control; conditions: OVCAR-4, 48 h, read-out: Activity
OVCAR-4 [23] = experiment: Cytotoxicity against human OVCAR4 cells assessed as cell growth at 0.01 uM after 48 hrs by SRB assay relative to control; conditions: OVCAR-4, 48 h, read-out: Activity
EKVX [24] = experiment: Cytotoxicity against human EKVX cells assessed as cell growth at 100 uM after 48 hrs by SRB assay relative to control; conditions: read-out: Activity
[25] = read-out: LC50 (the source's name)

Compound: N#CCCCCCn1cc(C2=C(c3cn(CCCCCC#N)c4ccccc34)C(=O)N(O)C2=O)c2ccccc21
- growth at 100 µM (SNB-19): 20%
- growth at 100 µM (PC-3 [1]): -4%
- growth at 100 µM (U-251 [2]): 5%
- GI50 (OVCAR-5): 38.4 µM
- LC50 (OVCAR-5): > 100 µM
- TGI (OVCAR-5): > 100 µM
- growth at 1 µM (NCI-H322M [3]): 100%
- growth at 0.1 µM (HOP-92): 97%
- growth at 1 µM (TK-10): 107%
- growth at 100 µM (UACC-62): -55%
- growth at 0.1 µM (DU-145): 103%
- growth at 100 µM (MCF7): -14%
- GI50 (U-251 [4]): 4.65 µM
- TGI (U-251 [4]): > 100 µM
- CC50 (U-251 [4]; [25]): > 100 µM
- GI50 (NCI-H322M [5]): 8.53 µM
- TGI (NCI-H322M [5]): 84.6 µM
- CC50 (NCI-H322M [5]; [25]): > 100 µM
- growth at 0.01 µM (U-251 [6]): 102%
- growth at 0.1 µM (U-251 [7]): 100%
- growth at 1 µM (A549): 100%
- growth at 1 µM (U-251 [8]): 100%
- growth at 100 µM (NCI-H322M [9]): -4%
- growth at 0.01 µM (Malme-3M [10]): 100%
- growth at 0.01 µM (NCI-H460): 104%
- growth at 100 µM (Malme-3M [11]): -14%
- growth at 0.01 µM (PC-3 [12]): 93%
- growth at 0.1 µM (NCI-H322M [13]): 99%
- growth at 100 µM (RXF 393): -25%
- GI50 (CAKI-1): 21.3 µM
- LC50 (CAKI-1): > 100 µM
- TGI (CAKI-1): > 100 µM
- growth at 100 µM (SK-MEL-2): -38%
- growth at 0.01 µM (NCI-H322M [14]): 98%

Compound: Cn1cc(C2=C(c3cn(C)c4ncccc34)C(=O)NC2=O)c2ccccc21
- growth at 100 µM (OVCAR-4 [15]): -3%
- growth at 100 µM (SNB-19): -11%
- growth at 0.1 µM (EKVX [16]): 84%
- growth at 100 µM (PC-3 [1]): -9%
- GI50 (OVCAR-5): 3.88 µM
- TGI (OVCAR-5): 29.1 µM
- growth at 1 µM (EKVX [17]): 65%
- growth at 0.1 µM (HOP-92): 83%
- growth at 1 µM (TK-10): 87%
- growth at 100 µM (UACC-62): -51%
- growth at 0.1 µM (DU-145): 102%
- growth at 100 µM (MCF7): -15%
- growth at 0.01 µM (EKVX [18]): 91%
- growth at 0.1 µM (OVCAR-4 [19]): 87%
- growth at 1 µM (A549): 84%
- GI50 (OVCAR-4 [20]): 4.86 µM
- TGI (OVCAR-4 [20]): 83.1 µM
- CC50 (OVCAR-4 [20]; [25]): > 100 µM
- GI50 (EKVX [21]): 1.83 µM
- TGI (EKVX [21]): 15.1 µM
- CC50 (EKVX [21]; [25]): > 100 µM
- growth at 100 µM (SK-OV-3): -7%
- growth at 0.01 µM (Malme-3M [10]): 109%
- growth at 0.01 µM (NCI-H460): 97%
- growth at 1 µM (OVCAR-4 [22]): 85%
- growth at 100 µM (Malme-3M [11]): -11%
- growth at 0.01 µM (PC-3 [12]): 99%
- growth at 100 µM (RXF 393): -49%
- growth at 0.01 µM (OVCAR-4 [23]): 102%
- GI50 (CAKI-1): 1.19 µM
- TGI (CAKI-1): 10.2 µM
- growth at 100 µM (EKVX [24]): -42%
- growth at 100 µM (SK-MEL-2): -55%

Source: ChEMBL document CHEMBL4229455, “Synthesis and anticancer activity of novel bisindolylhydroxymaleimide derivatives with potent GSK-3 kinase inhibition” (Bioorg Med Chem, 2018)
